Assay [1] concerns the target T1, Glycogen synthase kinase-3 beta (Mus musculus, UniProt Q9WV60). Kind of assay: Inhibition of GSK-3 beta in mouse D3 cells. The assay is classed as cell-based.
In assay [2] the target is T1, Glycogen synthase kinase-3 beta. Kind of assay: Inhibition of GSK-3 beta in mouse D3 cells assessed as induction of neuron specific marker beta3-tubulin by immunofluorescence method. The assay is classed as cell-based.
Assay [3] has the same target. Kind of assay: Inhibition of GSK-3 beta in mouse D3 cells assessed as induction of neuron specific marker microtubule-associated protein 2 by immunofluorescence method. The assay is classed as cell-based.
Assay [4] shares this target. Put plainly: Binding affinity to GSK-3 beta in mouse D3 cells. It counts as cell-based.
Assay [5] has as its target Myc proto-oncogene protein/Transcription factor AP-1 (Gallus gallus, UniProt P01109+P18870). Put plainly: Inhibition of Myc-Jun protein - protein interaction in chicken embryo fibroblasts assessed as inhibition of cell focus formation11.
The target of assay [6] is T1, Glycogen synthase kinase-3 beta. Put plainly: Inhibition of GSK-3 beta in mouse D3 cells assessed as induction of neuron specific marker neurofilament-M by immunofluorescence method. The assay is classed as cell-based.
Assay [7] can be described thus: Induction of cardiomyogenesis in mouse D3 cells assessed as induction of cadiomyocyte specific marker myosin heavy chain by immunofluorescence method. It counts as functional, cell-based.
The nature of assay [8]: Induction of cardiomyogenesis in mouse D3 cells assessed as induction of cadiomyocyte specific marker MEF2 by immunofluorescence method. The assay is classed as functional, cell-based.
The target of a further assay is Histone deacetylase. Kind of assay: Inhibition of HDAC in human A549 cells assessed as induction of histone acetylation by fluorescence microscopy. It counts as cell-based.
Another assay relates to C3H 10T1/2. Kind of assay: Induction of osteogenesis in mouse C3H10T1/2 cells assessed as induction of osteoblast specific marker alkaline phosphatase by immunofluorescence method. It counts as functional, cell-based.
Assay [9] can be described thus: Binding affinity to yeast Ure2p. Also on record: species or system Saccharomyces cerevisiae.

T1 sequence (Q9WV60 whole entry): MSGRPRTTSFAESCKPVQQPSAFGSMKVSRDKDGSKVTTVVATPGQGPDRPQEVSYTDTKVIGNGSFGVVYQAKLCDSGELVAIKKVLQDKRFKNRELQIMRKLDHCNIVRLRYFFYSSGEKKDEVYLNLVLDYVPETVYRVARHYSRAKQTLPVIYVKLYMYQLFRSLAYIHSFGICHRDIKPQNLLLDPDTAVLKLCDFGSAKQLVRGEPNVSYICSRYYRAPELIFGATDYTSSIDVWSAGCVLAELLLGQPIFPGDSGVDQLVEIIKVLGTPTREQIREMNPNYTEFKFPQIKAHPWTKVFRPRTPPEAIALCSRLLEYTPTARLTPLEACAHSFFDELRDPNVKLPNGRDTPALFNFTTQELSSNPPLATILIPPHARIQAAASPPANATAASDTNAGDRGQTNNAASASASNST
Sequence of Myc proto-oncogene protein/Transcription factor AP-1 (P18870 whole entry): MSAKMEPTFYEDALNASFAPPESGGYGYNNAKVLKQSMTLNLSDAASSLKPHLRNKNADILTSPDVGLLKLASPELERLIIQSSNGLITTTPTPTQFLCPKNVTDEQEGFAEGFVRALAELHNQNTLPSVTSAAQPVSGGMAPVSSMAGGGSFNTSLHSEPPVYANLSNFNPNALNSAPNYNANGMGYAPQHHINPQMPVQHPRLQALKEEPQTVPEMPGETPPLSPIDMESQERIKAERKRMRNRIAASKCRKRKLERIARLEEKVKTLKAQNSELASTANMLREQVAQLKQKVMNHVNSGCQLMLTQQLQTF
Sequence of Myc proto-oncogene protein/Transcription factor AP-1 (P01109 whole entry): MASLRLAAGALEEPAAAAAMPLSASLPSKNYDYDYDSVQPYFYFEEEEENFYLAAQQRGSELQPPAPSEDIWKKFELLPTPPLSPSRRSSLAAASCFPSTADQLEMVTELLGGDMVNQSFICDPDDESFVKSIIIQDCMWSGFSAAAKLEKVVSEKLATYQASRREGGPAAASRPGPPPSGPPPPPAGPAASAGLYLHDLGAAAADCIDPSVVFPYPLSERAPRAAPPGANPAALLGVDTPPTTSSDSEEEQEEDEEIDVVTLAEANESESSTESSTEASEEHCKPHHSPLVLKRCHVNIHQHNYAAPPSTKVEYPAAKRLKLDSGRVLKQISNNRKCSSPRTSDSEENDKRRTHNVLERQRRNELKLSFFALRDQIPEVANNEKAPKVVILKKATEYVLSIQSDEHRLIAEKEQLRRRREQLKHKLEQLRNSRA

On to `Nc1cccc(-c2cc3c(Oc4cccc(O)c4)ncnc3[nH]2)c1`, for which the affinity in assay [1], expressed as Kd, was 126 nM. Also, the EC50 in assay [2], in [3] and in [6] was 1000 nM in each case. Moreover, the IC50 (in general, the concentration that inhibits the measured activity by half) in assay [4] was 30 nM; in [5] it was 15000 nM.
Consider `COc1ccc(Nc2nccc(NCCO)n2)cc1` [CARDIOGENOL C], for which the EC50 in assay [7] and in assay [8] was 100 nM in each case.
For the compound `Nc1ccccc1NC(=O)CCCCCC(=O)Nc1cccc([C@@H]2O[C@H](CN3CCN(Cc4ccccc4)CC3)C[C@H](c3ccc(CO)cc3)O2)c1` [HISTACIN], at Histone deacetylase, the concentration for a half-maximal effect (EC50) (usually the concentration that produces a half-maximal response) is 34000 nM.
Consider `c1ccc2c(Oc3nc(Nc4ccc(N5CCOCC5)cc4)c4ncn(C5CCCCC5)c4n3)cccc2c1` [PURMORPHAMINE], for which, in the assay with C3H 10T1/2, the half-maximal effective concentration (EC50) was determined as 1000 nM.
`NCc1ccc([C@H]2O[C@@H](CSc3nc(-c4ccccc4)c(-c4ccccc4)o3)[C@H](c3ccccc3)[C@@H](c3ccc(CO)cc3)O2)cc1` [URETUPAMINE A]: in assay [9], the Kd (usually the constant that tells how readily two partners part at equilibrium) turned out to be 18100 nM.
In [9], `NCc1ccc([C@H]2O[C@@H](CSc3nc(-c4ccccc4)c(-c4ccccc4)o3)C[C@@H](c3ccc(CO)cc3)O2)cc1` [URETUPAMINE B] registered a Kd of 7500 nM.

(Values after ChEMBL document CHEMBL1240300, “Diversity-oriented synthesis: exploring the intersections between chemistry and biology” (Nat Chem Biol, 2005).)
